According to PMC8806947, “β-galactosidase GALA from Bacillus circulans with high transgalactosylation activity” (Bioengineered, 2021):

Columns and labels:
[1] = target: T1, GALA (β-galactosidase from Bacillus circulans) (Niallia circulans, UniProt E5RWQ2); test: o-nitrophenol release, absorbance at […] nm; format: biochemical; conditions: 0.25% oNPG, 20 mM phosphate-citrate pH 6.0, 45 °C, 15 min
T1 construct: gene bga; codon-optimised synthetic gene (galAm) with His-tag, secreted from Pichia pastoris GS115 (pPICZαA); HisTrap and gel filtration; predicted 1703 residues, 190 kDa; glycosylated
T1 sequence (E5RWQ2 24-1737): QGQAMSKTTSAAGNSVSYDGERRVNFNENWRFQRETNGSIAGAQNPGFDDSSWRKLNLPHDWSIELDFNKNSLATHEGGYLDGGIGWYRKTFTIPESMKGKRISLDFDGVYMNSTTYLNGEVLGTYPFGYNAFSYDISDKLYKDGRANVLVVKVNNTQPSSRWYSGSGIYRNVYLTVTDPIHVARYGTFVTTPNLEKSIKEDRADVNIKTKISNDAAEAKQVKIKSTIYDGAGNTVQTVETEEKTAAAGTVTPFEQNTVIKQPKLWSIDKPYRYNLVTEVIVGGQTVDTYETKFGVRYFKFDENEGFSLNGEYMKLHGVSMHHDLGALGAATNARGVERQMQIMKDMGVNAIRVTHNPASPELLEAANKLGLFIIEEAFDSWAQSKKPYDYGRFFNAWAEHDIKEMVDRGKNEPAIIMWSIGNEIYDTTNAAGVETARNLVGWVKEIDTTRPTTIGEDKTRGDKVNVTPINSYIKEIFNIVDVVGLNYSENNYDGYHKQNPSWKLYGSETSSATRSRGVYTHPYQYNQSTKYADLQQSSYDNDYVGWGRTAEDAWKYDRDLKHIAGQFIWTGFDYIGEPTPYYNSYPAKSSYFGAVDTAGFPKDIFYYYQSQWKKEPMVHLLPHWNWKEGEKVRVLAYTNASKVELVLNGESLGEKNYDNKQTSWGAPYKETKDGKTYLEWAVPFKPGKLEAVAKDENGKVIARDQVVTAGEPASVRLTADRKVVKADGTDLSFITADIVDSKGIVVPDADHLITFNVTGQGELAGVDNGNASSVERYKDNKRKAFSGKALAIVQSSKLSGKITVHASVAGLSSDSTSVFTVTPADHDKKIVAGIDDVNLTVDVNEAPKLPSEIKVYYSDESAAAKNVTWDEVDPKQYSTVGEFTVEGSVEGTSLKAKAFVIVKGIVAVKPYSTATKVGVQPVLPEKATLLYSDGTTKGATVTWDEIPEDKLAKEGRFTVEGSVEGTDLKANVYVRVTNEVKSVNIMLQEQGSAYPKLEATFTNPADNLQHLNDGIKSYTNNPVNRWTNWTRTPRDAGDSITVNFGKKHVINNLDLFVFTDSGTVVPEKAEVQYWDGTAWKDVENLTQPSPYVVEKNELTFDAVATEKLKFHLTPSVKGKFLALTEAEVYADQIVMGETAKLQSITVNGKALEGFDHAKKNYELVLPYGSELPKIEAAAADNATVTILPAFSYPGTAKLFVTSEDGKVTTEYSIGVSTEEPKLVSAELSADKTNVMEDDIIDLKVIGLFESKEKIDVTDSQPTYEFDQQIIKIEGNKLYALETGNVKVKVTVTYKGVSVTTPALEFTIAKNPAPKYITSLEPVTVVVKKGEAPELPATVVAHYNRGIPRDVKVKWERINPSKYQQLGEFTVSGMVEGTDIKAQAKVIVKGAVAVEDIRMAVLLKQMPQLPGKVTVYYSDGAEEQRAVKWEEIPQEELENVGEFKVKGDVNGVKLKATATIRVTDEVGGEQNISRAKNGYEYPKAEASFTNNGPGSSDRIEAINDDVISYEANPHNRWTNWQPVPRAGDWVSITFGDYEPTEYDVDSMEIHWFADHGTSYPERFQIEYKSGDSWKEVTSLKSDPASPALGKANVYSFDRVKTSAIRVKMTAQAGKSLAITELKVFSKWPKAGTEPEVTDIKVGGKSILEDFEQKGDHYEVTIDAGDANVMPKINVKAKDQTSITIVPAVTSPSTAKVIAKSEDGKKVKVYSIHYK

[2] = target: T1, GALA (β-galactosidase from Bacillus circulans); test: HPLC and TLC of hydrolysis and transgalactosylation products; format: biochemical; conditions: 200-500 g/L lactose, 0.1 M phosphate-citrate pH 5-7, 30-50 °C; also galactosyl acceptor

Compound | o-nitrophenol release, absorbance at 420 nm [1] | HPLC and TLC of hydrolysis and transgalactosylation products [2]
O=[N+]([O-])c1ccccc1O[C@@H]1O[C@H](CO)[C@H](O)[C@H](O)[C@H]1O [O-nitrophenyl-β-D-galactopyranoside] | The experiments were carried out three times using ONPG as the substrate | –
OC[C@H]1O[C@@H](O[C@H]2[C@H](O)[C@@H](O)C(O)O[C@@H]2CO)[C@H](O)[C@@H](O)[C@H]1O (some centres unmarked) [lactose] | – | enzymatic transgalactosylation activity of the β-galactosidase, using lactose as the substrate
